The source of these data is patent publication US9187454B2, “Inhibitors of kinases and cancer stem cells, and methods of preparation and use thereof” (Boston Biomedical, Inc., priority 2013, dated 2015).

Assay type in all cases: cell-based
One test concerns FaDu. The test can be described thus: Bulk cancer cell viability, CellTiter-Glo, FaDu. Particulars: viability 72 hours after drug treatment. Here is the method:
(§1) Cancer cells were plated at 5000 cells per well in black-walled 96 well plates in 100 uL per well of complete media (DMEM, 10% FBS, 1% penicillin/streptomycin). Cells were treated with each of the compounds 24 hours after plating with a dose curve of the indicated compounds in triplicate wells. Cells were harvested 72 hours after drug treatment and viability was determined using CellTiter-Glo assay (Promega) as directed by the manufacturer.

The next test has as its system FaDu CSC. The test can be described thus: Cancer stem cell sphere culture viability, CellTiter-Glo, FaDu CSC. Particulars: CSC cultures, viability 72 hours after drug treatment. Here is the method:
(§2) Cancer Stem Cell (CSC) cultures were initiated from heterogenous cancer cell lines. Briefly, cancer cell cultures were trypsonized and collected in centrifuge tubes. Cells were then pelleted by centrifugation, media removed, and cells resuspended in phosphate buffered saline (PBS). Cells were then pelleted again, and the process repeated for a total of three PBS washes. Cells were subsequently resuspended in CSC media (DMEMF-12, 1×B27 supplement (Life Technologies), 0.4% BSA, 10 ng/ml EGF, 10 ng/ml FGF). Following resuspension, cells were passed through a 40 uM cell strainer to obtain a single cell suspension. Cells were then plated in 100 mm dishes coated with 0.5% Agar to prevent cell attachment. Cells were then allowed to grow for 5-7 days to allow CSC sphere formation.
(§3) CSC spheres that were a minimum of passage 2 were dissociated with Accutase and filtered through a 40 uM cell strainer before counting to remove any cell clumps. CSCs were then plated at 1000 cells per well in black-walled 96 well plates that have been coated in 0.5% Agar in 100 uL per well of CSC media. CSCs were then allowed to grow for 72 hours. CSC cultures were then treated with a dose curve of the indicated compounds in triplicate wells. CSC cultures were harvested 72 hours after drug treatment and viability determined using CellTiter-Glo assay (Promega) as directed by the manufacturer.

The next test concerns ACHN. The test is described as follows: Bulk cancer cell viability, CellTiter-Glo, ACHN. Particulars: viability 72 hours after drug treatment. As for the experimental part: as §1
(Cellular ATP, detected with luciferase, serves as a proxy for viable cell number.)

In a further test the test system is A549. The test is described as follows: Bulk cancer cell viability, CellTiter-Glo, A549. Particulars: Homo sapiens, viability 72 hours after drug treatment. Here is the method: as §1
A further test relates to A549 CSC. The test is described as follows: Cancer stem cell sphere culture viability, CellTiter-Glo, A549 CSC. Particulars: Homo sapiens, CSC cultures, viability 72 hours after drug treatment. As for the experimental part: as §2, §3

As a reminder, the IC50 is the concentration that gives 50% inhibition. Consider `CCN(CC)CCNC(=O)c1ccc(/C=C2\C(=O)Nc3ccc(-c4csc(-c5ccccc5)n4)cc32)[nH]c1=O` [Compound 263], for which the 50% inhibitory concentration (IC50) in the test with FaDu (Homo sapiens, FaDu, 72 h) is 2.41 µM; in the test with FaDu CSC (Homo sapiens, FaDu, 72 h), 8.16 µM.

In the case of `CCN(CC)CCNC(=O)c1c(C)[nH]c(/C=C2\C(=O)Nc3ccc(-c4csc(-c5ccccc5)n4)nc32)c1C` [Compound 261], the IC50 with FaDu (Homo sapiens, FaDu, 72 h) turned out to be 1.51 µM; with FaDu CSC (Homo sapiens, FaDu, 72 h), 0.65 µM; in the test on ACHN (Homo sapiens, ACHN, 72 h), 1.75 µM; with A549, 1.12 µM. `O=C1Nc2ccc(-c3csc(-c4ccccc4)n3)cc2/C1=C/c1ccc(C(=O)NCCN2CCOCC2)c(=O)[nH]1` [Compound 265] came in with an IC50 in the test on FaDu (Homo sapiens, FaDu, 72 h) of 62.7 µM. In other words, the double-digit micromolar range.

Take `CCN(CC)CCNC(=O)c1c(C)[nH]c(/C=C2\C(=O)Nc3ccc(C4=CS/C(=C\c5ccccc5)N4C)cc32)c1C` [Compound 283]: the IC50 came to 5.35 µM with FaDu (Homo sapiens, FaDu, 72 h) and 2.17 µM with FaDu CSC (Homo sapiens, FaDu, 72 h). With `CCN(CC)CCNC(=O)c1c(C)[nH]c(/C=C2\C(=O)Nc3ccc(-c4ccc(-c5cccnc5)s4)cc32)c1C` [Compound 298], the IC50 was 14.3 µM with FaDu (Homo sapiens, FaDu, 72 h) and 40.8 µM in the test on FaDu CSC (Homo sapiens, FaDu, 72 h). For `CCN(CC)CCNC(=O)c1c(C)[nH]c(/C=C2\C(=O)Nc3cc(-c4csc(-c5ccccc5)n4)ccc32)c1C` [Compound 233] the same measures were 5.02 µM and 0.66 µM. In the case of `CCN(CC)CCNC(=O)c1c(C)[nH]c(/C=C2\C(=O)Nc3ccc(C4CCN(C5CCN(C(C)=O)CC5)CC4)cc32)c1C` [Compound 272], the IC50 in the test with FaDu (Homo sapiens, FaDu, 72 h) stood at 22.3 µM.

In the test with FaDu (Homo sapiens, FaDu, 72 h), `CN1CCN(C(=O)c2ccc(/C=C3\C(=O)Nc4ccc(-c5csc(-c6ccccc6)n5)cc43)[nH]c2=O)CC1` [Compound 264] yielded an IC50 of 99.8 µM.

As to `CCN(CC)CCNC(=O)c1c(C)[nH]c(/C=C2\C(=O)Nc3ccc(-c4ncc(-c5ccccc5)o4)cc32)c1C` [Compound 247], the IC50 in the test on ACHN (Homo sapiens, ACHN, 72 h) is 63.3 µM. For the molecule `Cc1[nH]c(/C=C2\C(=O)Nc3ccc(-c4csc(-c5ccccc5)n4)nc32)c(C)c1C(=O)NCCN1CCCC1` [Compound 262], the IC50 in the test on FaDu (Homo sapiens, FaDu, 72 h) worked out at 3.62 µM; in the test on FaDu CSC (Homo sapiens, FaDu, 72 h), 1.1 µM; in the test with ACHN (Homo sapiens, ACHN, 72 h), 2.83 µM; with A549 it was 3.15 µM; in the test on A549 CSC, 2.01 µM. With `CCN(CC)CCNC(=O)c1c(C)[nH]c(/C=C2\C(=O)Nc3ccc(-c4nnc(-c5ccccc5)s4)cc32)c1C` [Compound 250], the IC50 in the test with FaDu (Homo sapiens, FaDu, 72 h) amounted to 14.1 µM; with ACHN, 83.9 µM. Regarding `CCN(CC)CCNC(=O)c1c(C)[nH]c(/C=C2\C(=O)Nc3c2cccc3-c2csc(-c3ccccc3)n2)c1C` [Compound 235], the IC50 was found to be 5.3 µM with FaDu (Homo sapiens, FaDu, 72 h) and 1.4 µM in the test with FaDu CSC (Homo sapiens, FaDu, 72 h). Turning to `Cc1cc(C(=O)NCCO)[nH]c1/C=C1\C(=O)Nc2ccc(-c3csc(-c4ccccc4)n3)cc21` [Compound 370], in the test with FaDu (Homo sapiens, FaDu, 72 h), inhibition was half-maximal at 56 µM (IC50).

On to `Cc1[nH]c(/C=C2\C(=O)Nc3ccc(-c4csc(-c5ccncc5)n4)cc32)c(C)c1CCC(=O)O` [Compound 348], for which the IC50 in the test on FaDu (Homo sapiens, FaDu, 72 h) turned out to be 64.4 µM. For the molecule `CCN(CC)CCNC(=O)c1c(C)[nH]c(/C=C2\C(=O)Nc3ccc(-c4nnc(-c5ccccc5)s4)cc32)c1C` [Compound 303], the IC50 in the test with FaDu amounted to 7.98 µM; with FaDu CSC, 12.6 µM; with ACHN, 5.67 µM.

In the case of `Cc1[nH]c(/C=C2\C(=O)Nc3cc(-c4csc(-c5ccccc5)n4)ccc32)c(C)c1C(=O)N1CCN(C)CC1` [Compound 234], the midpoint of inhibition with FaDu (Homo sapiens, FaDu, 72 h), the IC50, lay at 6.29 µM.

In turn, `O=C1Nc2ccc(-c3csc(-c4ccncc4)n3)cc2/C1=C/c1cc2ccccc2[nH]1` [Compound 352] registered an IC50 in the test with FaDu (Homo sapiens, FaDu, 72 h) of 67.8 µM. Take `CCN(CC)CCNC(=O)c1c(C)[nH]c(/C=C2\C(=O)Nc3ccc(-c4cn(-c5ccccc5)nc4C)cc32)c1C` [Compound 287]: the IC50 with FaDu is 5.79 µM; with FaDu CSC it was 1.31 µM. As for `CCN(CC)CCNC(=O)c1c(C)[nH]c(/C=C2\C(=O)Nc3ccc(-c4cnn(C5CCOCC5)c4)cc32)c1C` [Compound 273], the IC50 came to 6.15 µM in the test on FaDu (Homo sapiens, FaDu, 72 h); 9.05 µM with FaDu CSC (Homo sapiens, FaDu, 72 h); 27.3 µM in the test on A549.

Take `Cc1[nH]c(/C=C2\C(=O)Nc3c2cccc3-c2csc(-c3ccccc3)n2)c(C)c1C(=O)N1CCN(C)CC1` [Compound 236]: the IC50 was determined as 11.3 µM in the test with FaDu (Homo sapiens, FaDu, 72 h) and 2.53 µM in the test with FaDu CSC (Homo sapiens, FaDu, 72 h). Turning to `CCN(CC)CCNC(=O)c1c(C)[nH]c(/C=C2\C(=O)Nc3cc(-c4ccc(-c5ccccc5)s4)ccc32)c1C` [Compound 244], it took 87.6 µM to reach half-maximal inhibition in the test with FaDu (Homo sapiens, FaDu, 72 h) (IC50). Still for that read-out and setting: under `Cc1[nH]c(/C=C2\C(=O)Nc3cc(-c4csc(-c5ccccc5)n4)ccc32)c(C)c1C(=O)N1CCOCC1` [Compound 268] stands 64.8 µM.
